Measurements published in patent US9187396B2, “Compositions and methods for the treatment of glomerulonephritis” (Avexxin AS, priority 2009, dated 2015).

Key:
mesangial cells = experiment: [3H]thymidine incorporation in mesangial cells (proliferation); assay type: cell-based, rat; conditions: insulin (100 ng/ml), IGF (50 ng/ml) or ATP (100 μM), 24 h
Experimental: FIGS. 5A and 5B show the effect of the inhibitors of the examples on [^3H]thymidine incorporation in mesangial cells. In FIG. 5A, quiescent cells were stimulated for 24 h with vehicle (DMEM), or 100 μM of ATP in the absence (−) or presence of the indicated concentrations of AVX001 or AVX002, in the presence of [^3H]thymidine. In FIG. 5B, cells were stimulated for 24 h with insulin (100 ng/ml) or IGF (50 ng/ml) in the absence (−) or presence of 10 μM of AVX001 or AVX002, in the presence of [^3H]thymidine. Thymidine incorporated into DNA was determined and results are expressed as % of control and are means±S.D. (n=3). Glomerulonephritis is characterized in a first early phase by increased mesangial apoptosis which in a second phase is replaced by an opposite event, i.e. hyperproliferation of mesangial cells. Many previous studies have shown that quiescent mesangial cells in culture can re-enter the cell cycle when exposed to various growth factors, including PDGF, insulin, insulin-like growth factor (IGF), or extracellular nucleotides such as ATP and UTP. […] In the presence of either AKH217 or AVX002, agonist-stimulated [^3H]thymidine incorporation is reduced (FIGS. 5A and 5B). Similar data were also obtained when cells were stimulated with PDGF.

[1] = test system: Nitric oxide (NO) formation in rat renal mesangial cells; experiment: cytokine-stimulated NO formation in mesangial cells (Griess Reaction assay); assay type: cell-based; conditions: IL-1β (1 nM), supernatant
Experimental: Quiescent cells were stimulated with either DMEM (−), IL-1β (1 nM; +), in the absence or presence of the indicated concentrations of AKH-217, AVX002, or AACOCF3. Supernatants were collected and taken for nitric oxide (NO) quantification by using a Griess Reaction assay. Data are expressed as μM of NO in the supernatant and are means±S.D. (n=3).
To see whether this effect is due to altered gene transcription of iNOS, luciferase reporter gene assays were performed to measure iNOS promoter activity. A 4.5 kb fragment of the rat iNOS promoter was kindly provided by Dr. K. F. Beck (pharmazentrum frankfurt).

rat iNOS promoter = experiment: iNOS promoter activity, luciferase reporter gene assay; assay type: cell-based; conditions: IL-1β (1 nM) plus 10 μM compound
Experimental: (§1) FIGS. 4A to 4C show the effect of the inhibitors of the examples on cytokine-stimulated iNOS protein (FIG. 4A) and mRNA (FIG. 4B) expression and promoter activity in mesangiai cells. Quiescent cells were stimulated with either vehicle (DMEM), IL-1β (1 nM), in the absence (−) or presence of the indicated concentrations (in μM) of AVX001 and AVX002. EtOH, vehicle control. In FIG. 4A, cells were taken for protein extraction and equal amount of. protein were separated by SDS-PAGE and subjected to a Western blot analysis using a polyclonal antibody against iNOS at a dilution of 1:2000. Data are representative of at least 3 independent experiments giving similar results. In FIG. 4B, cells were taken for RNA extraction and subjected to quantitative PCR analysis of rat iNOS and 18 S RNA. ΔΔCt values were calculated and results are expressed as % of maximal IL-1β response and are means±S.D (n=3). In FIG. 4C, cells were transfected with the rat iNOS promoter construct plus a plasmid coding for the Renilla luciferase. After transfection, cells were stimulated with vehicle (−), IL-1β (1 nM), or IL-1β plus 10 μM of AVX001. iNOS promoter activity was calculated and results are expressed as relative luciferase units (RLU) and are means±S.D.(n=3).
(§2) To see whether this effect is due to altered gene transcription of iNOS, luciferase reporter gene assays were performed to measure iNOS promoter activity. […]

[2] = test system: iNOS protein expression in mesangial cells; experiment: cytokine-stimulated iNOS protein expression, Western blot; assay type: cell-based, rat; conditions: IL-1β (1 nM)
Experimental: as §1, §2

[3] = test system: IIA-sPLA2 protein expression in mesangial cells; experiment: cytokine-stimulated sPLA2 protein expression and secretion, Western blot; assay type: cell-based, rat; conditions: IL-1β (1 nM), supernatants
Experimental: (§3) FIGS. 2A to 2C show the effect of the inhibitors of the examples on cytokine-stimulated sPLA2 protein (FIG. 2A) and mRNA (FIG. 2B) expression and promoter activity in mesangial cells. Quiescent cells were stimulated with either DMEM (−), or IL-1β (1 nM) in the absence (−) or presence of AKH-217 (etOH), vehicle control. In FIG. 2A, supernatants were taken for protein precipitation and precipitated proteins were separated by SDS-PAGE and subjected to a Western blot analysis using a monoclonal antibody against rat sPLA2. […] In FIG. 2B, cells were taken for RNA extraction and subjected to quantitative PCR analysis of rat IIA-sPLA2 and 18 S RNA. ΔΔCt values were calculated and results are expressed as % of maximal IL-1β-stimulated response and are means+S.D. (n=3). In FIG. 2C, cells were transfected with the sPLA2 promoter construct plus a plasmid coding for the Renilla luciferase. After transfection, cells were stimulated for 24 h with vehicle (−), IL-1β (1 nM), or IL-1β plus 10 μM of AKH-217. sPLA2 promoter activity was calculated and results are expressed as relative luciferase units (RLU) and are means±S.D. (n=3).
(§4) It has been previously shown that the cytokine-induced PGE2 formation in mesangial cells involves both sPLA2 and cPLA2 activation (Pfeilschifter et al., 1993), we then investigated the effect of the inhibitors above on sPLA2 protein and mRNA expressions. […]

[4] = test system: IIA-sPLA2 mRNA expression in mesangial cells; experiment: cytokine-stimulated IIA-sPLA2 mRNA expression, quantitative PCR; assay type: cell-based, rat; conditions: IL-1β (1 nM)
Experimental: as §3, §4

rat IIA-sPLA2 promoter = experiment: sPLA2 promoter activity, luciferase reporter gene assay; assay type: cell-based; conditions: IL-1β (1 nM) plus 10 μM compound, 24 h
Experimental: as §3, §4

phospho-p65 (NFκB) = experiment: IL-1β-stimulated NFκB activation, phospho-p65 Western blot; assay type: cell-based, rat; conditions: IL-1β (2 nM) 30 min, 10 μM compound pretreated 2 h
Experimental: FIGS. 6A to 6C show the effect of the inhibitors of the examples on IL-1β-stimulated NFκB activation in mesangial cells. In FIG. 6A, quiescent cells were stimulated for 30 min with either vehicle (DMEM), or IL-1β (2 nM) in the absence (−) or presence (+) of AVX001 or AVX002 (10 μM, pretreated 2 h). Thereafter, cell lysates were separated by SDS-PAGE and subjected to a Western blot analysis using a polyclonal antibody against phospho-p65 (NFκB) (upper panel), HuR as a loading control (middle panel), and IκB (lower panel). Data in FIG. 6A show duplicates of one representative experiments. FIGS. 6B and 6C show the densitometric evaluation of NFkB and IkB bands.
NFkB activation was measured by Western blot analyses by detecting the amount of phospho-p65 which represents the active transcription factor subunit.

effect on IL-1β-stimulated iNOS promoter activity (rat iNOS promoter): completely lost | effect on IL-1β-stimulated sPLA2 promoter activity (rat IIA-sPLA2 promoter): completely reduced
Structure (SMILES): CC/C=C\C/C=C\C/C=C\C/C=C\CC/C=C/CSCC(=O)C(F)(F)F [AKH-217]
effect on agonist-stimulated [3H]thymidine incorporation (mesangial cells): reduced | effect on IL-1β-stimulated NO formation [1]: reduced in a dose-dependent manner | effect on IL-1β-induced iNOS protein expression [2]: down-regulated | effect on IIA-sPLA2 protein expression and secretion [3]: able to reduce | effect on IIA-sPLA2 mRNA expression [4]: able to reduce | effect on IL-1β-induced increase of phospho-p65 (phospho-p65 (NFκB)): reduced
